Reference: EP4721753A1, “PHARMACEUTICAL COMPOSITION FOR PREVENTING OR TREATING CORONAVIRUS INFECTIOUS DISEASES COMPRISING CELL-PERMEABLE PEPTIDE-NUCLEIC ACID OLIGOMER AS ACTIVE INGREDIENT” (GiftedMS Co., Ltd., priority 2023, dated 2024)
Several values for one entry are separate records, joined by “and”; a condition that tells them apart may be missing. Equal entries are not always repeated. Where two headings read alike, the source gives them in different places.

How the values were obtained:
Format in all cases: cell-based
HCoV-OC43 = assay: qRT-PCR evaluation of antiviral efficacy (viral RNA level in culture supernatant), HCT8 cells infected with HCoV-OC43; conditions: 1 µM PNA oligomer; HCT8 cells infected with HCoV-OC43 at 500 TCID50; viral RNA from cell supernatant on Day 3 after infection
Protocol: In order to analyze the level of viral RNA in viral particles present in a virus culture solution to determine how well the constructed PNA oligomer-based drugs inhibit viral genetic replication, qRT-PCR was performed.
Specifically, HCT8 cells cultured in 6-well plates one day before for drug screening were infected with HCoV-OC43 at a dose of 500 TCID50 using a serum-free RPMI medium. At the same time as infection, the cells were also treated with 1 µM of PNA oligomer, and after 30 minutes, the cells were washed twice with serum-free RPMI, and then the medium was replaced with an RPMI-Complete medium (containing 10% FBS and 1% penicillin/streptomycin) and the cells were treated with 1 µM of PNA oligomer. On Day 3 after infection, viral RNA was extracted from 140 µL of the cell supernatant using a QIAamp viral RNA mini kit manufactured by Qiagen. Virus extraction was performed according to the kit manual. The viral titer of the extracted viral RNA was measured by real-time PCR using a One step TB green kit manufactured by Takara. The primers used are as follows. HCoV-OC43 primer; Nucleoprotein (NP) gene (5'-[…]-3', 5'-[…]-3'). Real-time PCR conditions are as follows. Temperature Stage 1: Reverse transcription 42°C 5 min, 95°C 10 sec, 1 Cycle. Stage 2: PCR reaction 95°C 5 sec, 60°C 34 sec, 35 Cycles. Stage 3: melting curve analysis 95°C 15 sec, 65°C 60 sec, 95°C 15 sec.

SARS-CoV-2 = conditions: 1000 nM; Vero cells pre-incubated 2 hours; viral RNA 24 hours after infection
SARS-CoV-2 virus = conditions: Vero cells, 1000 to 0.49 nM, 2-fold dilution, viral RNA after 24 hours, three repeated experiments

Molecule	Inhibition% (HCoV-OC43)	Inhibition% (SARS-CoV-2)	IC50 (SARS-CoV-2 virus)	IC50 (SARS-CoV-2 virus; listed as Paxlovid (P.C)-1)	IC50 (SARS-CoV-2 virus; listed as Paxlovid (P.C)-2)	IC50 (SARS-CoV-2 virus; listed as Paxlovid (P.C)-3)
CC(C)(C)[C@H](NC(=O)C(F)(F)F)C(=O)N1C[C@H]2[C@@H]([C@H]1C(=O)N[C@H](C#N)C[C@@H]1CCNC1=O)C2(C)C [PF07321332, Nirmatrelvir]	97.98%	–	–	–	–	–
Paxlovid	–	96.03%	317 nM and 328 nM and 464 nM	317 nM	328 nM	464 nM
